Experiments:
[1] = tested on: corn; experiment: Test C preemergence; type: in vivo, Zea mays
Method in brief: (§1)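 Whole-plant greenhouse test with surfactant-containing solvent formulation, applied preemergence to sown loam–sand pots or postemergence to 2–18 cm plants. Scored by eye 13 to 15 days on, 0–100 scale.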

[2] = tested on: wheat; experiment: Test A preemergence; type: in vivo, Triticum aestivum; conditions: for Wheat plant response rating: 500 g ai/ha
Method in brief: (§2)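 Greenhouse pot test, loam/sand soil. Formulation: non-phytotoxic solvent mix plus surfactant. Pre: directed spray onto soil after sowing. Post: plants at 1–2 leaf, 2–10 cm. Rated visually vs untreated controls at ~10 d, 0 (no effect) to 100 (complete control).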

[3] = tested on: barnyardgrass; experiment: Test C preemergence; type: in vivo, Echinochloa crus-galli
Text: Seeds of plant species selected from blackgrass (Alopecurus myosuroides), Italian ryegrass (Lolium multiflorum), wheat, winter (winter wheat, Triticum aestivum), galium (catchweed bedstraw, Galium aparine), corn (Zea mays), large (Lg) crabgrass (Digitaria sanguinalis), giant foxtail (Setaria faberii), johnsongrass (Sorghum halepense), lambsquarters (Chenopodium album), morningglory (Ipomoea coccinea), yellow nutsedge (Cyperus esculentus), pigweed (Amaranthus retroflexus), ragweed (common ragweed, Ambrosia elatior), soybean (Glycine max), barnyardgrass (Echinochloa crus-galli), oilseed rape (Brassica napus), waterhemp (common waterhemp, Amaranthus rudis), kochia (Kochia scoparia), wild oat (Avena fatua), surinam grass (Brachiaria decumbens), foxtail, green (green foxtail, Setaria viridis), goosegrass (Eleusine indica), bromegrass, downy (downy bromegrass, Bromus tectorum), nightshade (eastern black nightshade, Solanum ptycanthum), cocklebur (common cocklebur, Xanthium strumarium), cupgrass, woolly (woolly cupgrass, Eriochloa villosa), bermudagrass (Cynodon dactylon), sunflower, (common oilseed sunflower, Helianthus annuus), Russian thistle (Salsola kali), and velvetleaf (Abutilon theophrasti) were planted into a blend of loam soil and sand and treated preemergence with test chemicals formulated in a non-phytotoxic solvent mixture which included a surfactant.
At the same time, plants selected from these crop and weed species and also barley, winter (winter barley, Hordeum vulgare), windgrass (Apera spica-venti), chickweed (common chickweed, Stellaria media), deadnettle (henbit deadnettle, Lamium amplexicaule), and canarygrass (littleseed canarygrass, Phalaris minor) were planted in pots containing Redi-Earth® planting medium (Scotts Company, 14111 Scottslawn Road, Marysville, Ohio 43041) comprising spaghnum peat moss, vermiculite, wetting agent and starter nutrients and treated with postemergence applications of test chemicals formulated in the same manner. Plants ranged in height from 2 to 18 cm (1- to 4-leaf stage) for postemergence treatments. Treated plants and controls were maintained in a greenhouse for 13 to 15 days, after which time all species were compared to controls and visually evaluated. Plant response ratings, summarized in Table C, are based on a scale of 0 to 100 where 0 is no effect and 100 is complete control. A dash (-) response means no test result.

[4] = tested on: barnyardgrass; experiment: Test B flooded paddy test; type: in vivo, Echinochloa crus-galli; conditions: Flood, 250 g ai/ha, 0 to 100 scale where 0 is no effect and 100 is complete control
Method in brief: (§3)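 Flooded to 3 cm at the 2-leaf stage, pots received compound through the paddy water and were kept at that depth under greenhouse conditions. After 13–15 days, effect was rated by eye relative to controls, 0 = none and 100 = complete control.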

[5] = tested on: morningglory; experiment: Test A preemergence; type: in vivo, Ipomoea spp.; conditions: for Morningglory plant response rating: 500 g ai/ha
Method in brief: as §2

[6] = tested on: oilseed rape; experiment: Test C preemergence; type: in vivo, Brassica napus
Method in brief: as §1

[7] = tested on: sedge, umbrella; experiment: Test B flooded paddy test; type: in vivo, Cyperus difformis; conditions: Flood, 250 g ai/ha, 0 to 100 scale where 0 is no effect and 100 is complete control
Method in brief: as §3

[8] = tested on: velvetleaf; experiment: Test A postemergence; type: in vivo, Abutilon theophrasti; conditions: 0 to 100 scale where 0 is no effect and 100 is complete control; for Plant response rating, Velvetleaf: 500 g ai/ha; for Velvetleaf plant response rating: 125 g ai/ha
Method in brief: as §2

[9] = tested on: giant foxtail; experiment: Test C preemergence; type: in vivo, Setaria faberii
Method in brief: as §1

[10] = 16 g ai/ha, preemergence, scale 0 to 100 (0 no effect, 100 complete control)
[11] = 62 g ai/ha, preemergence, scale 0 (no effect) to 100 (complete control)
[12] = 125 g ai/ha, preemergence, scale 0 (no effect) to 100 (complete control)
[13] = Preemergence, 31 g ai/ha, scale 0 to 100, 0 no effect, 100 complete control
[14] = 125 g ai/ha, 0 to 100 scale where 0 is no effect and 100 is complete control
[15] = 0 to 100 scale where 0 is no effect and 100 is complete control
[16] = Preemergence, 62 g ai/ha, scale 0 to 100, 0 no effect, 100 complete control

SMILES	Corn plant response rating [1, 10]	Corn plant response rating [1, 11]	Corn plant response rating [1, 12]	Plant response rating, Corn [1, 13]	Barnyardgrass plant response rating [3, 10]	Barnyardgrass plant response rating [3, 11]	Barnyardgrass plant response rating [3, 12]	Plant response rating, Barnyardgrass [3, 13]	Plant response rating, Barnyardgrass [4]	Oilseed Rape plant response rating [6, 10]	Oilseed Rape plant response rating [6, 11]	Oilseed Rape plant response rating [6, 12]	Plant response rating, Sedge, Umbrella [7]	Plant response rating, Velvetleaf [8]	Foxtail, Giant plant response rating [9, 10]	Foxtail, Giant plant response rating [9, 11]	Foxtail, Giant plant response rating [9, 12]	Plant response rating, Foxtail, Giant [9, 13]	Wheat plant response rating (0 to 100 scale) ([2]; 125 g ai/ha)	Wheat plant response rating [2, 15]	also measured
Fc1cnc(Oc2cccc(C(F)F)c2-n2cc(Br)cn2)nc1 [Compound 112]	0	5	20	0	0	30	90	5	0	65	95	100	85	100	15	100	100	85	–	–	Plant response rating, Wheat [2, 14]: 0; Plant response rating, Morningglory [5, 14]: 80; Morningglory plant response rating ([5]; 0 to 100 scale, 0 no effect, 100 complete control, approx. 10 days): 90; Plant response rating, Oilseed Rape [6, 13]: 90
Fc1cccc(Oc2ncc(Cl)cn2)c1-n1cc(I)cn1 [Compound 179]	0	5	15	5	5	90	100	10	20	60	98	100	85	100	40	100	100	85	0	30	Morningglory plant response rating (0 to 100 scale) ([5]; 125 g ai/ha): 10; Morningglory plant response rating [5, 15]: 80; Velvetleaf plant response rating [8]: 100
CCOc1cnn(-c2ccccc2Oc2ncc(Cl)cn2)c1 [Compound 187]	0	–	5	–	5	–	90	–	0	70	–	90	50	100	0	–	85	–	0	40	Plant response rating, Corn [1, 16]: 5; Plant response rating, Barnyardgrass [3, 16]: 65; Morningglory plant response rating (0 to 100 scale) ([5]; 125 g ai/ha): 0; Morningglory plant response rating [5, 15]: 50; Plant response rating, Oilseed Rape [6, 16]: 90; Velvetleaf plant response rating [8]: 100; Plant response rating, Foxtail, Giant [9, 16]: 85
N#Cc1cccc(Oc2ncc(Cl)cn2)c1-n1cnc(C(F)(F)F)c1 [Compound 252, 3-[(5-chloro-2-pyrimidinyl)oxy]-2-[4-(trifluoromethyl)-1H-imidazol-1-yl]benzonitrile]	–	–	–	–	–	–	–	–	–	–	–	–	–	–	–	–	–	–	–	–	plant injury at 16 g/ha ([1]; Zea mays, pre-emergence, 16 g ai/ha, preemergence, scale 0 to 100 (0 no effect, 100 complete control), read-out: Corn plant response rating): 10%; plant injury at 125 g/ha ([1]; Zea mays, pre-emergence, 125 g ai/ha, preemergence, scale 0 (no effect) to 100 (complete control), read-out: Corn plant response rating): 70%; Corn plant response rating (crop injury, 0 = no effect, 100 = complete kill) at 62 g/ha ([1]; Zea mays, pre-emergence, Preemergence, 62 g ai/ha, scale 0 to 100, 0 no effect, 100 complete control): 40%; pest or weed control at 16 g/ha ([3]; Echinochloa crus-galli, pre-emergence, 16 g ai/ha, preemergence, scale 0 to 100 (0 no effect, 100 complete control), read-out: Barnyardgrass plant response rating): 10%; pest or weed control at 125 g/ha ([3]; Echinochloa crus-galli, pre-emergence, 125 g ai/ha, preemergence, scale 0 (no effect) to 100 (complete control), read-out: Barnyardgrass plant response rating): 100%; pest or weed control at 62 g/ha ([3]; Echinochloa crus-galli, pre-emergence, Preemergence, 62 g ai/ha, scale 0 to 100, 0 no effect, 100 complete control, read-out: Plant response rating, Barnyardgrass): 100%; pest or weed control at 250 g/ha ([4]; Echinochloa crus-galli, read-out: Plant response rating, Barnyardgrass): 40%; plant injury at 16 g/ha ([6]; Brassica napus, pre-emergence, 16 g ai/ha, preemergence, scale 0 to 100 (0 no effect, 100 complete control), read-out: Oilseed Rape plant response rating): 80%; plant injury at 125 g/ha ([6]; Brassica napus, pre-emergence, 125 g ai/ha, preemergence, scale 0 (no effect) to 100 (complete control), read-out: Oilseed Rape plant response rating): 100%; plant injury at 62 g/ha ([6]; Brassica napus, pre-emergence, Preemergence, 62 g ai/ha, scale 0 to 100, 0 no effect, 100 complete control, read-out: Plant response rating, Oilseed Rape): 100%; pest or weed control at 250 g/ha ([7]; Cyperus difformis, read-out: Plant response rating, Sedge, Umbrella): 80%; pest or weed control at 16 g/ha ([9]; Setaria faberi, pre-emergence, 16 g ai/ha, preemergence, scale 0 to 100 (0 no effect, 100 complete control), read-out: Foxtail, Giant plant response rating): 35%; pest or weed control at 125 g/ha ([9]; Setaria faberi, pre-emergence, 125 g ai/ha, preemergence, scale 0 (no effect) to 100 (complete control), read-out: Foxtail, Giant plant response rating): 100%; pest or weed control at 62 g/ha ([9]; Setaria faberi, pre-emergence, Preemergence, 62 g ai/ha, scale 0 to 100, 0 no effect, 100 complete control, read-out: Plant response rating, Foxtail, Giant): 100%
Fc1cccc(Oc2ncc(Cl)cn2)c1-n1cc(OCC(F)(F)F)cn1 [Compound 270]	0	–	55	–	0	–	100	–	35	95	–	100	90	–	5	–	100	–	–	–	Plant response rating, Corn [1, 16]: 20; Plant response rating, Barnyardgrass [3, 16]: 90; Plant response rating, Oilseed Rape [6, 16]: 100; Plant response rating, Foxtail, Giant [9, 16]: 100

From US9695155B2, “Herbicidal substituted pyrimidinyloxy benzene compounds” (E. I. DU PONT DE NEMOURS AND COMPANY, priority 2013, dated 2017)
